{"source": "patent US20190151274A1", "about": "“COMPOUND FOR USE IN THE TREATMENT OF A BLOOD VESSEL DISEASE” (Universitaet Potsdam, priority 2017, published 2019)", "tested_on": "ALK1 mutant zebrafish", "assay": "Treatment of ALK1 mutant zebrafish, microscopic images of the lateral dorsal aorta", "assay_type": "in vivo", "conditions": "0.3 μM ATRA, 24-51 hours after insemination; control 0.1% DMSO; FIG. 5", "method": "The zebrafish ALK1 mutant is in a gene that is defective in some patients that suffer from HHT (hereditary hemorrhagic telangiectasia). The ALK1 mutant phenotype is an enlarged lateral dorsal aorta (LDA).\nThe treatment with the different active ingredients took place, between 24-51 hours after insemination of zebrafish eggs. The treatment was performed with 0.1% DMSO (first row) and 0.3 μM ATRA (second row).", "data": [{"compound": "CC1=C(/C=C/C(C)=C/C=C/C(C)=C/C(=O)O)C(C)(C)CCC1", "note": "[ATRA, all-trans retinoic acid]", "values": [{"measurement": "overgrowth of the aorta (enlarged lateral dorsal aorta) in the ALK1 mutant", "result": "suppressed"}]}]}
